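The compound was tested at five concentrations on cells cultured in 96-well plates, with a 48-hour exposure period. Here, GI50 denotes the concentration required for 50% inhibition of growth. TGI denotes the concentration required for complete inhibition of growth.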
Experiments:
Test in all cases: inhibition of tumour cell growth, NCI panel, 48 h
MDA-MB-435 = tested on: MDA-MB-435
SK-OV-3 ovarian = tested on: SK-OV-3 ovarian
SK-MEL-28 melanoma = tested on: SK-MEL-28 melanoma
HCC-2998 colon = tested on: HCC-2998 colon
MCF7 breast = tested on: MCF7 breast
IGROV1 ovarian = tested on: IGROV1 ovarian
SN12C renal = tested on: SN12C renal
KM12 colon = tested on: KM12 colon
SNB-19 CNS = tested on: SNB-19 CNS
SF-295 CNS = tested on: SF-295 CNS
TK-10 renal = tested on: TK-10 renal
OVCAR-4 ovarian = tested on: OVCAR-4 ovarian
SF-268 CNS = tested on: SF-268 CNS
SR leukemia = tested on: SR leukemia
MDA-MB-231 breast = tested on: MDA-MB-231 breast
BT-549 breast = tested on: BT-549 breast
OVCAR-3 ovarian = tested on: OVCAR-3 ovarian
K-562 leukemia = tested on: K-562 leukemia
SNB-75 CNS = tested on: SNB-75 CNS
HOP-62 NSCLC = tested on: HOP-62 NSCLC
HL-60(TB) leukemia = tested on: HL-60(TB) leukemia
SK-MEL-2 melanoma = tested on: SK-MEL-2 melanoma
LOX IMVI melanoma = tested on: LOX IMVI melanoma
CAKI-1 renal = tested on: CAKI-1 renal
UACC-62 melanoma = tested on: UACC-62 melanoma
NCI-H460 lung = tested on: NCI-H460 lung
UACC-257 melanoma = tested on: UACC-257 melanoma
T-47D breast = tested on: T-47D breast
ACHN renal = tested on: ACHN renal
HOP-92 NSCLC = tested on: HOP-92 NSCLC
HT29 colon = tested on: HT29 colon
SK-MEL-5 melanoma = tested on: SK-MEL-5 melanoma
SF-539 CNS = tested on: SF-539 CNS
OVCAR-8 ovarian = tested on: OVCAR-8 ovarian
RXF 393 renal = tested on: RXF 393 renal
MOLT-4 leukemia = tested on: MOLT-4 leukemia
A549 NSCLC = tested on: A549 NSCLC
EKVX NSCLC = tested on: EKVX NSCLC
OVCAR-5 ovarian = tested on: OVCAR-5 ovarian
PC-3 prostate = tested on: PC-3 prostate
MALME-3M melanoma = tested on: MALME-3M melanoma
786-0 renal = tested on: 786-0 renal
M14 melanoma = tested on: M14 melanoma
UO-31 renal = tested on: UO-31 renal
HCT-116 colon = tested on: HCT-116 colon
DU-145 prostate = tested on: DU-145 prostate
HS 578T breast = tested on: HS 578T breast
SW-620 colon = tested on: SW-620 colon
NCI/ADR-RES ovarian = tested on: NCI/ADR-RES ovarian
HCT-15 colon = tested on: HCT-15 colon
U251 CNS = tested on: U251 CNS
A498 renal = tested on: A498 renal
NCI-H522 lung = tested on: NCI-H522 lung
CCRF-CEM leukemia = tested on: CCRF-CEM leukemia
NCI-H226 lung = tested on: NCI-H226 lung

Q: What does the source list for `[Cl][Ru].c1ccc(-c2cccc(-c3ccccn3)n2)nc1.c1ccc(-c2ccnc3c2ccc2c(-c4ccccc4)ccnc23)cc1`?
A: GI50 (MDA-MB-435): 2.77 µM; TGI (MDA-MB-435): 11 µM; GI50 (SK-OV-3 ovarian): 2.3 µM; TGI (SK-OV-3 ovarian): 7 µM; GI50 (SK-MEL-28 melanoma): 3.01 µM; TGI (SK-MEL-28 melanoma): 18 µM; TGI (HCC-2998 colon): 20.1 µM; GI50 (MCF7 breast): 2.41 µM; TGI (MCF7 breast): 13.4 µM; GI50 (IGROV1 ovarian): 2.93 µM; TGI (IGROV1 ovarian): 20.7 µM; GI50 (SN12C renal): 2.87 µM; TGI (SN12C renal): 10.8 µM; GI50 (KM12 colon): 3.04 µM; TGI (KM12 colon): > 100 µM; GI50 (SNB-19 CNS): 3.33 µM; TGI (SNB-19 CNS): 21.7 µM; GI50 (SF-295 CNS): 13.8 µM; TGI (SF-295 CNS): 56.7 µM; GI50 (TK-10 renal): 11.8 µM; TGI (TK-10 renal): 37.3 µM; GI50 (OVCAR-4 ovarian): 3.13 µM; TGI (OVCAR-4 ovarian): 26.7 µM; GI50 (SF-268 CNS): 4.17 µM; TGI (SF-268 CNS): > 100 µM; GI50 (SR leukemia): 2.65 µM; TGI (SR leukemia): 17.9 µM; GI50 (MDA-MB-231 breast): 3 µM; TGI (MDA-MB-231 breast): 12.5 µM; GI50 (BT-549 breast): 2.26 µM; TGI (BT-549 breast): 6.46 µM; GI50 (OVCAR-3 ovarian): 3.36 µM; TGI (OVCAR-3 ovarian): > 100 µM; GI50 (K-562 leukemia): 1.67 µM; TGI (K-562 leukemia): > 100 µM; GI50 (SNB-75 CNS): 2.37 µM; TGI (SNB-75 CNS): 9.73 µM; GI50 (HOP-62 NSCLC): 4.11 µM; TGI (HOP-62 NSCLC): 27.9 µM; GI50 (HL-60(TB) leukemia): 1.62 µM; TGI (HL-60(TB) leukemia): 4.03 µM; GI50 (SK-MEL-2 melanoma): 1.96 µM; TGI (SK-MEL-2 melanoma): 5.13 µM; GI50 (LOX IMVI melanoma): 3.04 µM; TGI (LOX IMVI melanoma): > 100 µM; GI50 (CAKI-1 renal): 13.8 µM; TGI (CAKI-1 renal): 36.6 µM; GI50 (UACC-62 melanoma): 1.97 µM; TGI (UACC-62 melanoma): 5.53 µM; GI50 (NCI-H460 lung): 3.75 µM; TGI (NCI-H460 lung): > 100 µM; GI50 (UACC-257 melanoma): 2.7 µM; TGI (UACC-257 melanoma): 14.2 µM; GI50 (T-47D breast): 2.32 µM; TGI (T-47D breast): 8.35 µM; GI50 (ACHN renal): 21.2 µM; TGI (ACHN renal): > 100 µM; GI50 (HOP-92 NSCLC): 1.09 µM; TGI (HOP-92 NSCLC): 3.64 µM; GI50 (HT29 colon): 3.08 µM; TGI (HT29 colon): 12 µM; GI50 (SK-MEL-5 melanoma): 6.55 µM; TGI (SK-MEL-5 melanoma): 44.4 µM; GI50 (SF-539 CNS): 2.93 µM; TGI (SF-539 CNS): 19.9 µM; GI50 (OVCAR-8 ovarian): 5.35 µM; TGI (OVCAR-8 ovarian): 59 µM; GI50 (RXF 393 renal): 3.43 µM; TGI (RXF 393 renal): 19 µM; GI50 (MOLT-4 leukemia): 3.51 µM; TGI (MOLT-4 leukemia): 24.5 µM; GI50 (A549 NSCLC): 4.06 µM; TGI (A549 NSCLC): 75.4 µM; GI50 (EKVX NSCLC): 3.22 µM; TGI (EKVX NSCLC): 23.3 µM; GI50 (OVCAR-5 ovarian): 4.01 µM; TGI (OVCAR-5 ovarian): 19.5 µM; GI50 (PC-3 prostate): 2.63 µM; TGI (PC-3 prostate): 10.6 µM; GI50 (MALME-3M melanoma): 2.42 µM; TGI (MALME-3M melanoma): 7.52 µM; GI50 (786-0 renal): 13.2 µM; TGI (786-0 renal): 62.7 µM; GI50 (M14 melanoma): 4.82 µM; TGI (M14 melanoma): 34.3 µM; GI50 (UO-31 renal): 6.31 µM; TGI (UO-31 renal): > 100 µM; GI50 (HCT-116 colon): 3.16 µM; TGI (HCT-116 colon): > 100 µM; GI50 (DU-145 prostate): 4.84 µM; TGI (DU-145 prostate): > 100 µM; GI50 (HS 578T breast): 2.6 µM; TGI (HS 578T breast): 8.63 µM; GI50 (SW-620 colon): 4.14 µM; TGI (SW-620 colon): 80.5 µM; GI50 (NCI/ADR-RES ovarian): 10 µM; TGI (NCI/ADR-RES ovarian): > 100 µM; GI50 (HCT-15 colon): 22.4 µM; TGI (HCT-15 colon): > 100 µM; GI50 (U251 CNS): 2.69 µM; TGI (U251 CNS): > 100 µM; GI50 (A498 renal): 15.1 µM; TGI (A498 renal): 46.6 µM; GI50 (NCI-H522 lung): 2.12 µM; TGI (NCI-H522 lung): 6.75 µM; GI50 (CCRF-CEM leukemia): 4.5 µM; TGI (CCRF-CEM leukemia): > 100 µM; GI50 (NCI-H226 lung): 4.66 µM; TGI (NCI-H226 lung): 25.7 µM

Source: PubChem BioAssay (NCI)
